28 compounds from patent publication US8618287B2, “Derivatives of triazines and uracils, their preparation and their application in human therapeutics” (Pierre Fabre Medicament, priority 2008, dated 2013) can be followed below.

As usually defined, the melting point is the temperature of the solid-liquid transition.

In the first data set the target is T1, Human SCD-1 (Homo sapiens, UniProt O00767).
T1 construct: adding 125 μg of microsomal fraction of HepG2 cells; host or cells: HepG2 human hepatocarcinoma cells (microsomal fraction)
T1 sequence (O00767 1-359): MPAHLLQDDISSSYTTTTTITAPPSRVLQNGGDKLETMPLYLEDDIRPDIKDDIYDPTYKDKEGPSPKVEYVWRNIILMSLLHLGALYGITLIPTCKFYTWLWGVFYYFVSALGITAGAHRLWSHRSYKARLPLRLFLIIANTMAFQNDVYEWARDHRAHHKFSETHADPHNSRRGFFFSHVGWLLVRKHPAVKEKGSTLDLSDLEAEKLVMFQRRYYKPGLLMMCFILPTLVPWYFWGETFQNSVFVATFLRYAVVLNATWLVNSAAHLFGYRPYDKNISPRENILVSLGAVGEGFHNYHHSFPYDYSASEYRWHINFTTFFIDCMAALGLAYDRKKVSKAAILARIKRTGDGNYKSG
As to the kind of experiment: Human SCD-1 enzymatic activity from microsomes of HepG2 cells (conversion of stearic acid into oleic acid). It counts as biochemical. To be noted: 10 μM compound; microsomal fraction of HepG2 cells; relative to carrier 0.1% DMSO. How it is done:
In vitro: Human SCD-1 enzymatic activity from microsomes of HepG2 cells after treatment with inhibitory compounds (inhibition %).
Human hepatocarcinoma HepG2 cells (ATCC, HB-8065) are grown to confluence and then trypsinized. The cell pellet is taken up in 10 mM Tris buffer (pH 7.4), saccharose (250 mM) DTT (1 mM) and then the cells are lyzed by sonication. The microsomes are obtained after centrifugation at 10,000 g for 20 minutes a 4° C. followed by centrifugation of the supernatant at 100,000 g for 60 minutes a 4° C. The pellet is taken up in 10 mM Tris buffer (pH 7.4) saccharose (250 mM) at 4° C. and the microsomal proteins are assayed and stored at −196° C. (liquid nitrogen).
The enzymatic reaction measures the conversion of stearic acid (a C18:0 fatty acid) into oleic acid (C18:1 fatty acid) by SCD-1. The enzymatic reaction is started by adding 125 μg of microsomal fraction of HepG2 cells to tubes (total reaction volume of 500 μl) containing 62 μM of stearic acid (45 μM of stearic acid and 17 μM of [^14C] stearic acid) in a phosphate buffer at 100 mM (pH 7.16) with 7.2 mM of ATP, 0.54 mM of CoA, 6 mM of MgCl2, 0.8 mM of NADH and the inhibitory compound or the carrier (0.1% DMSO). The tubes are incubated for 20 minutes at 37° C. and the enzymatic reaction is then stopped by adding KOH (12%) and saponification for 30 minutes at 80° C. After acidification (3N HCl), the fatty acids are extracted twice with ethyl ether, evaporated under nitrogen before being taken up with a methanol/dichloromethane (3:1) mixture. The product of the reaction (C18:1) is separated from the substrate of the reaction (C18:0) by HPLC (Perkin Elmer, C18 reverse phase column) coupled to a on-line radioactivity detector (FlowOne). Enzymatic activity is calculated in picomoles of stearic acid converted into oleic acid per minute and per mg of protein. For each inhibitory compound, an inhibition % is determined relatively to the reference enzymatic activity (carrier 0.1% DMSO). Sterculic acid is the reference inhibitory compound (Gomez F. E., Bauman D. E., Ntambi J. M., Fox B. G. Effects of sterculic acid on stearoyl-CoA desaturase in differentiating […] adipocytes. Biochem Biophys Res Commun. 300 316-326 (2003)).
For `CCCCCCCCC1=C(CCCCCCCC(=O)O)C1` [Sterculic acid, reference compound], the “HSCD-1 (HEPG2) % inh. (10 μM)” value was 100%.

Still in this data set, the particulars now being: 10 μM compound; microsomal fraction of HepG2 cells; relative to carrier 0.1% DMSO; read-out: HSCD-1 (HEPG2) % inh. (10 μM).
In the case of `CCCCCCCn1c(=O)c(N2CCN(C(=O)c3ccccc3C(F)(F)F)CC2)nn(C)c1=O` [Example 1, 4-heptyl-2-methyl-6-[4-(2-trifluoromethyl-benzoyl)-piperazin-1-yl]-2H-[1,2,4]triazine-3,5-dione], the inhibition at 10 µM stood at 11%. `Cn1c(=O)c(N2CCC(Oc3ccccc3C(F)(F)F)CC2)nn(CCCC(=O)c2cccs2)c1=O` [Example 19, 4-methyl-2-(4-oxo-4-thiophen-2-yl-butyl)-6-[4-(2-trifluoromethyl-phenoxy)-piperidin-1-yl]-2H-[1,2,4]triazine-3,5-dione]: the inhibition at 10 µM came to 57%. In the case of `CCCCCCCn1c(=O)c(N2CCC(Oc3ccccc3C(F)(F)F)CC2)nn(CCC#N)c1=O` [Example 12, 3-{4-heptyl-3,5-dioxo-6-[4-(2-trifluoromethyl-phenoxy)-piperidin-1-yl]-4,5-dihydro-3H-[1,2,4]triazin-2-yl}-propionitrile], the inhibition at 10 µM is 71%.

As to `CCCCn1nc(N2CCN(C(=O)c3ccccc3C(F)(F)F)CC2)c(=O)n(C)c1=O` [Example 74, 2-butyl-4-methyl-6-[4-(2-trifluoromethyl-benzoyl)-piperazin-1-yl]-2H-[1,2,4]triazine-3,5-dione], the inhibition at 10 µM came to 60%.

Take `Cn1c(=O)c(N2CCN(C(=O)c3cc(F)ccc3C(F)(F)F)CC2)nn(CCCC(F)(F)F)c1=O` [Example 47, 6-[4-(5-fluoro-2-trifluoromethyl-benzoyl)-piperazin-1-yl]-4-methyl-2-(4,4,4-trifluoro-butyl)-2H-[1,2,4]triazine-3,5-dione]: the inhibition at 10 µM came out at 84%. On to `CNC(=O)Cn1nc(N2CCC(Oc3ccccc3C(F)(F)F)CC2)c(=O)n(C)c1=O` [Example 14, N-methyl-2-{4-methyl-3,5-dioxo-6-[4-(2-trifluoromethyl-phenoxy)-piperidin-1-yl]-4,5-dihydro-3H-[1,2,4]triazin-2-yl}-acetamide], for which the inhibition at 10 µM was 74%.

Tested on in another data set: not given
Assay: not given
Details: not given
For `Cn1nc(N2CCN(c3cccc(C(F)(F)F)c3)CC2)c(=O)n(C)c1=O`, the melting point was 163 °C. The same measure, in the same setting: then `Cc1ccccc1C(=O)N1CCN(c2nn(C)c(=O)n(C)c2=O)CC1` [Example 43, 2,4-dimethyl-6-[4-(2-methyl-benzoyl)-piperazin-1-yl]-2H-[1,2,4]triazine-3,5-dione], with 60 °C. The compound `Cn1nc(N2CCC(Cc3cc(C(F)(F)F)ccc3F)CC2)c(=O)n(C)c1=O` [Example 39, 6-[4-(2-fluoro-5-trifluoromethyl-benzyl)-piperidin-1-yl]-2,4-dimethyl-2H-[1,2,4]triazine-3,5-dione] came in with a melting point of 116 °C. In turn, `Cn1cc(N2CCN(Cc3ccccc3)CC2)c(=O)n(C)c1=O` came in with a melting point of 162 °C. Same read-out and setting: the same measure for `Cn1nc(N2CCN(C(=O)c3ccc(F)cc3C(F)(F)F)CC2)c(=O)n(C)c1=O` [Example 41, 6-[4-(4-fluoro-2-trifluoromethyl-benzoyl)-piperazin-1-yl]-2,4-dimethyl-2H-[1,2,4]triazine-3,5-dione]: 128 °C; for `COc1ccccc1OC1CCN(c2nn(C)c(=O)n(C)c2=O)CC1` [Example 34, 6-[4-(2-methoxy-phenoxy)-piperidin-1-yl]-2,4-dimethyl-2H-[1,2,4]triazine-3,5-dione]: 78 °C. On the same count and under the same terms, the same measure for `Cn1nc(N2CCN(C(=O)c3cccc(C(F)(F)F)c3)CC2)c(=O)n(C)c1=O` [Example 44, 2,4-dimethyl-6-[4-(3-trifluoromethyl-benzoyl)-piperazin-1-yl]-2H-[1,2,4]triazine-3,5-dione]: 92 °C.

With `Cn1nc(N2CCN(C(=O)Oc3cccc(C(F)(F)F)c3)CC2)c(=O)n(C)c1=O` [Example 51, 4-(2,4-dimethyl-3,5-dioxo-2,3,4,5-tetrahydro-[1,2,4]triazin-6-yl)-piperazine-1-carboxylic Acid 3-trifluoromethyl-phenyl Ester], the melting point amounted to 93 °C. On the same count and under the same terms, then `Cn1nc(N2CCN(C(=O)c3ccccc3C(F)(F)F)C(=O)C2)c(=O)n(C)c1=O` [Example 53, 2,4-dimethyl-6-[3-oxo-4-(2-trifluoromethyl-benzoyl)-piperazin-1-yl]-2H-[1,2,4]triazine-3,5-dione], with 90 °C.

`Cn1nc(N2CCN(C(=O)/C=C/c3ccc([N+](=O)[O-])cc3)CC2)c(=O)n(C)c1=O` [Example 50, 2,4-dimethyl-6-{4-[(E)-3-(4-nitro-phenyl)-acryloyl]-piperazin-1-yl}-2H-[1,2,4]triazine-3,5-dione] gave a melting point of 198 °C. Still for that read-out and setting: then `Cn1nc(N2CCN(C(=O)c3ccccc3)CC2)c(=O)n(C)c1=O` [Example 46, 6-(4-benzoyl-piperazin-1-yl)-2,4-dimethyl-2H-[1,2,4]triazine-3,5-dione], with 132 °C; and `Cn1nc(N2CCC(Oc3ccccc3)C2)c(=O)n(C)c1=O` (stereo not shown) [Example 38, 2,4-dimethyl-6-(3-phenoxy-pyrrolidin-1-yl)-2H-[1,2,4]triazine-3,5-dione], with 80 °C; and `Cn1nc(N2CCC(Oc3ccccc3C(F)(F)F)C2)c(=O)n(C)c1=O` (stereo not shown) [Example 37, 2,4-dimethyl-6-[3-(2-trifluoromethyl-phenoxy)-pyrrolidin-1-yl]-2H-[1,2,4]triazine-3,5-dione], with 84 °C.

`CC(C)C(C(=O)N1CCN(c2nn(C)c(=O)n(C)c2=O)CC1)c1ccc(Cl)cc1` (stereo not shown) [Example 49, 6-{4-[2-(4-chloro-phenyl)-3-methyl-butyryl]-piperazin-1-yl}-2,4-dimethyl-2H-[1,2,4]triazine-3,5-dione]: the melting point was found to be 58 °C.

Compound `Cn1c(=O)c(N2CCC(Oc3ccccc3C(F)(F)F)CC2)nn(C2Cc3ccccc3C2=O)c1=O` (stereo not shown) [Example 87, 4-methyl-2-(1-oxo-indan-2-yl)-6-[4-(2-trifluoromethyl-phenoxy)-piperidin-1-yl]-2H-[1,2,4]triazine-3,5-dione] gave a melting point of 110 °C.

`Cn1nc(N2CCN(C(=O)c3cc(C(F)(F)F)ccc3C(F)(F)F)CC2)c(=O)n(C)c1=O` [Example 40, 6-[4-(2,5-Bis-trifluoromethyl-benzoyl)-piperazin-1-yl]-2,4-dimethyl-2H-[1,2,4]triazine-3,5-dione]: the melting point stood at 90 °C. On the same count and under the same terms, the same measure for `Cn1cc(N2CCN(C(=O)c3ccccc3C(F)(F)F)CC2)c(=O)n(C)c1=O` [Example 62, 1,3-dimethyl-5-[4-(2-trifluoromethyl-benzoyl)-piperazin-1-yl]-1H-pyrimidine-2,4-dione]: 163 °C; for `Cn1nc(N2CCN(C(=O)c3ccccc3Br)CC2)c(=O)n(C)c1=O` [Example 45, 6-[4-(2-bromo-benzoyl)-piperazin-1-yl]-2,4-dimethyl-2H-[1,2,4]triazine-3,5-dione]: 119 °C. The same measure, in the same setting: then `O=c1[nH]nc(N2CCC(Oc3ccccc3C(F)(F)F)CC2)c(=O)n1CCCC(F)(F)F` [Example 72, 4-(4,4,4-trifluoro-butyl)-6-[4-(2-trifluoromethyl-phenoxy)-piperidin-1-yl]-2H-[1,2,4]triazine-3,5-dione], with 102 °C. The same measure, in the same setting: the same measure for `Cn1nc(N2CCC(Oc3cc(F)ccc3Cl)CC2)c(=O)[nH]c1=O` [Example 90, 6-(4-(2-chloro-5-fluorophenoxy)piperidin-1-yl)-2-methyl-1,2,4-triazine-3,5(2H, 4H)-dione]: 172 °C; for `Cn1nc(N2CCC(C(=O)c3ccc(F)cc3)CC2)c(=O)n(C)c1=O` [Example 36, 6-[4-(4-fluoro-benzoyl)-piperidin-1-yl]-2,4-dimethyl-2H-[1,2,4]triazine-3,5-dione]: 129 °C.
